Test results published in patent publication US4471131A, “Novel silyl esters of N-phosphonomethylglycine” (Monsanto Company, priority 1983, dated 1984).

Assays:
Assay in all cases: post-emergence herbicidal activity, greenhouse
Type in all cases: in vivo
[1] = system: Panicum Spp; settings: Table III, 4 WAT, .28 kg/h
How it was run: (§1)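 Injury versus control pans was recorded at about 2 and 4 weeks post-treatment. Treatment was post-emergence: an atomizer spray holding roughly 0.4% by weight emulsifier and enough candidate chemical for the tabulated rates, applied to two-to-three-week-old plants raised in top-soil pans.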

[2] = system: Pennsylvania Smartweed
How it was run: as §1

[3] = system: Rice; settings: Table III
How it was run: as §1

[4] = system: Soybean; settings: Table III
How it was run: as §1

[5] = system: Velvetleaf
How it was run: as §1

[6] = Table II, 2 WAT, 5.6 kg/h, formulated in anhydrous tetrahydrofuran
[7] = Table II, 2 WAT, 11.2 kg/h, formulated in anhydrous tetrahydrofuran
[8] = Table II, 4 WAT, 5.6 kg/h, formulated in anhydrous tetrahydrofuran
[9] = Table II, 4 WAT, 11.2 kg/h, formulated in anhydrous tetrahydrofuran
[10] = Table III, 2 WAT, 1.1 kg/h, formulated in anhydrous tetrahydrofuran
[11] = Table III, 2 WAT, 5.6 kg/h, formulated in anhydrous tetrahydrofuran
[12] = Table III, 2 WAT, .28 kg/h, formulated in anhydrous tetrahydrofuran
[13] = Table III, 4 WAT, 1.1 kg/h, formulated in anhydrous tetrahydrofuran
[14] = Table III, 4 WAT, 5.6 kg/h, formulated in anhydrous tetrahydrofuran
[15] = Table III, 4 WAT, .28 kg/h, formulated in anhydrous tetrahydrofuran
[16] = 2 WAT, 1.1 kg/h, formulated in anhydrous tetrahydrofuran
[17] = 2 WAT, 5.6 kg/h, formulated in anhydrous tetrahydrofuran
[18] = 2 WAT, .28 kg/h, formulated in anhydrous tetrahydrofuran
[19] = 4 WAT, 1.1 kg/h, formulated in anhydrous tetrahydrofuran
[20] = 4 WAT, 5.6 kg/h, formulated in anhydrous tetrahydrofuran
[21] = 4 WAT, .28 kg/h, formulated in anhydrous tetrahydrofuran

Question: How did the “Plant Response Index (S)” value [1] turn out when `CCOC(=O)CNCP(=O)(O)O[Si](c1ccccc1)(c1ccccc1)C(C)(C)C` [Ex. 7, Glycine, N--((([(1,1-Dimethylethyl)Diphenylsilyl]Oxy)Hydroxyphosphinyl)Methyl)-,Ethyl Ester] was run?
Answer: 3 (75-99% inhibition)

Question: What about the “Plant Response Index (S)” value ([1]; formulated in anhydrous tetrahydrofuran) of the same compound?
Answer: 1 (25-49% inhibition)

Question: What about the “Plant Response Index (F)” value ([2]; Table II, 2 WAT, 5.6 kg/h) of the same compound?
Answer: 2 (50-74% inhibition)

Question: What about the “Plant Response Index (F)” value [2, 6] of the same compound?
Answer: 1 (25-49% inhibition)

Question: What about the “Plant Response Index (F)” value ([2]; Table II, 2 WAT, 11.2 kg/h) of the same compound?
Answer: 2 (50-74% inhibition)

Question: What about the “Plant Response Index (F)” value [2, 7] of the same compound?
Answer: 1 (25-49% inhibition)

Question: What about the “Plant Response Index (F)” value ([2]; Table II, 4 WAT, 5.6 kg/h) of the same compound?
Answer: 4 (100% inhibition)

Question: And the “Plant Response Index (F)” value [2, 8]?
Answer: 1 (25-49% inhibition)

Question: What about the “Plant Response Index (F)” value ([2]; Table II, 4 WAT, 11.2 kg/h) of the same compound?
Answer: 2 (50-74% inhibition)

Question: What about the “Plant Response Index (F)” value [2, 9] of the same compound?
Answer: 4 (100% inhibition)

Question: What about the “Plant Response Index (F)” value ([2]; Table III, 2 WAT, 1.1 kg/h) of the same compound?
Answer: 3 (75-99% inhibition)

Question: What about the “Plant Response Index (F)” value [2, 10] of the same compound?
Answer: 4 (100% inhibition)

Question: What about the “Plant Response Index (F)” value ([2]; Table III, 2 WAT, 5.6 kg/h) of the same compound?
Answer: 2 (50-74% inhibition)

Question: And the “Plant Response Index (F)” value [2, 11]?
Answer: 4 (100% inhibition)

Question: And the “Plant Response Index (F)” value ([2]; Table III, 2 WAT, .28 kg/h)?
Answer: 3 (75-99% inhibition)

Question: What about the “Plant Response Index (F)” value [2, 12] of the same compound?
Answer: 2 (50-74% inhibition)

Question: And the “Plant Response Index (F)” value ([2]; Table III, 4 WAT, 1.1 kg/h)?
Answer: 3 (75-99% inhibition)

Question: And the “Plant Response Index (F)” value [2, 13]?
Answer: 4 (100% inhibition)

Question: And the “Plant Response Index (F)” value ([2]; Table III, 4 WAT, 5.6 kg/h)?
Answer: 3 (75-99% inhibition)

Question: What about the “Plant Response Index (F)” value [2, 14] of the same compound?
Answer: 4 (100% inhibition)

Question: And the “Plant Response Index (F)” value ([2]; Table III, 4 WAT, .28 kg/h)?
Answer: 3 (75-99% inhibition)

Question: And the “Plant Response Index (F)” value [2, 15]?
Answer: 2 (50-74% inhibition)

Question: And the “Plant Response Index (O)” value ([3]; 2 WAT, 1.1 kg/h)?
Answer: 2 (50-74% inhibition)

Question: And the “Plant Response Index (O)” value [3, 16]?
Answer: 1 (25-49% inhibition)

Question: And the “Plant Response Index (O)” value ([3]; 2 WAT, 5.6 kg/h)?
Answer: 2 (50-74% inhibition)

Question: What about the “Plant Response Index (O)” value [3, 17] of the same compound?
Answer: 3 (75-99% inhibition)

Question: What about the “Plant Response Index (O)” value ([3]; 2 WAT, .28 kg/h) of the same compound?
Answer: 2 (50-74% inhibition)

Question: What about the “Plant Response Index (O)” value [3, 18] of the same compound?
Answer: 1 (25-49% inhibition)

Question: What about the “Plant Response Index (O)” value ([3]; 4 WAT, 1.1 kg/h) of the same compound?
Answer: 3 (75-99% inhibition)

Question: What about the “Plant Response Index (O)” value [3, 19] of the same compound?
Answer: 1 (25-49% inhibition)

Question: And the “Plant Response Index (O)” value ([3]; 4 WAT, 5.6 kg/h)?
Answer: 3 (75-99% inhibition)

Question: What about the “Plant Response Index (O)” value [3, 20] of the same compound?
Answer: 3 (75-99% inhibition)

Question: And the “Plant Response Index (O)” value ([3]; 4 WAT, .28 kg/h)?
Answer: 1 (25-49% inhibition)

Question: What about the “Plant Response Index (O)” value [3, 21] of the same compound?
Answer: 0 (0-24% inhibition)

Question: What about the “Plant Response Index (L)” value ([4]; 2 WAT, 1.1 kg/h) of the same compound?
Answer: 2 (50-74% inhibition)

Question: And the “Plant Response Index (L)” value [4, 16]?
Answer: 1 (25-49% inhibition)

Question: What about the “Plant Response Index (L)” value ([4]; 2 WAT, 5.6 kg/h) of the same compound?
Answer: 2 (50-74% inhibition)

Question: What about the “Plant Response Index (L)” value [4, 17] of the same compound?
Answer: 2 (50-74% inhibition)

Question: And the “Plant Response Index (L)” value ([4]; 2 WAT, .28 kg/h)?
Answer: 0 (0-24% inhibition)

Question: And the “Plant Response Index (L)” value [4, 18]?
Answer: 1 (25-49% inhibition)

Question: What about the “Plant Response Index (L)” value ([4]; 4 WAT, 1.1 kg/h) of the same compound?
Answer: 1 (25-49% inhibition)

Question: What about the “Plant Response Index (L)” value [4, 19] of the same compound?
Answer: 1 (25-49% inhibition)

Question: And the “Plant Response Index (L)” value ([4]; 4 WAT, 5.6 kg/h)?
Answer: 1 (25-49% inhibition)

Question: And the “Plant Response Index (L)” value [4, 20]?
Answer: 2 (50-74% inhibition)

Question: And the “Plant Response Index (L)” value ([4]; 4 WAT, .28 kg/h)?
Answer: 0 (0-24% inhibition)

Question: And the “Plant Response Index (L)” value [4, 21]?
Answer: 1 (25-49% inhibition)

Question: And the “Plant Response Index (C)” value ([5]; Table II, 2 WAT, 5.6 kg/h)?
Answer: 2 (50-74% inhibition)

Question: What about the “Plant Response Index (C)” value [5, 6] of the same compound?
Answer: 1 (25-49% inhibition)

Question: What about the “Plant Response Index (C)” value ([5]; Table II, 2 WAT, 11.2 kg/h) of the same compound?
Answer: 3 (75-99% inhibition)

Question: And the “Plant Response Index (C)” value [5, 7]?
Answer: 1 (25-49% inhibition)

Question: What about the “Plant Response Index (C)” value ([5]; Table II, 4 WAT, 5.6 kg/h) of the same compound?
Answer: 3 (75-99% inhibition)

Question: What about the “Plant Response Index (C)” value [5, 8] of the same compound?
Answer: 2 (50-74% inhibition)

Question: And the “Plant Response Index (C)” value ([5]; Table II, 4 WAT, 11.2 kg/h)?
Answer: 3 (75-99% inhibition)

Question: And the “Plant Response Index (C)” value [5, 9]?
Answer: 1 (25-49% inhibition)

Question: And the “Plant Response Index (C)” value ([5]; Table III, 2 WAT, 1.1 kg/h)?
Answer: 1 (25-49% inhibition)

Question: And the “Plant Response Index (C)” value [5, 10]?
Answer: 2 (50-74% inhibition)

Question: What about the “Plant Response Index (C)” value ([5]; Table III, 2 WAT, 5.6 kg/h) of the same compound?
Answer: 2 (50-74% inhibition)

Question: And the “Plant Response Index (C)” value [5, 11]?
Answer: 2 (50-74% inhibition)

Question: And the “Plant Response Index (C)” value ([5]; Table III, 2 WAT, .28 kg/h)?
Answer: 1 (25-49% inhibition)

Question: And the “Plant Response Index (C)” value [5, 12]?
Answer: 1 (25-49% inhibition)

Question: What about the “Plant Response Index (C)” value ([5]; Table III, 4 WAT, 1.1 kg/h) of the same compound?
Answer: 1 (25-49% inhibition)

Question: And the “Plant Response Index (C)” value [5, 13]?
Answer: 2 (50-74% inhibition)

Question: What about the “Plant Response Index (C)” value ([5]; Table III, 4 WAT, 5.6 kg/h) of the same compound?
Answer: 2 (50-74% inhibition)

Question: What about the “Plant Response Index (C)” value [5, 14] of the same compound?
Answer: 3 (75-99% inhibition)

Question: What about the “Plant Response Index (C)” value ([5]; Table III, 4 WAT, .28 kg/h) of the same compound?
Answer: 1 (25-49% inhibition)

Question: And the “Plant Response Index (C)” value [5, 15]?
Answer: 1 (25-49% inhibition)
